According to patent US20160238590A1, “COMPOSITIONS AND METHODS RELATED TO OAT SENSITIVITY” (IMMUSANT, INC., priority 2013, published 2016):
Where no end group is shown, it is not given here. [ ]: non-standard residue; d: D form. pGlu = O=C1CC[C@@H](C(=O)O)N1

Tests used:
Format in all cases: cell-based, human
PBMC [1] = test: IFN-γ ELISpot on PBMC of CD patients on day 6 after 3-day oats challenge; details: after 3-day oats challenge
Excerpt: (§1) Australian Caucasian HLA-DQ2.5^+ and/or HLA-DQ8^+ CD subjects were recruited by advertisement in the Coeliac Society of Victoria newsletter and all had biopsy-proven CD conforming to ESPGHAN criteria. Patients had been on strict gluten free diet for at least 4 weeks prior to commencing grain challenge. Patients underwent 3-day grain challenge with oats, barley, or combined wheat, barley, and rye muffins, and 6 days after commencement, blood was collected. Day 0 responses were not observed in the selection of patients tested, as described previously^8.
(§2) Oats challenge consisted of 100 g dry weight daily of one of three commercial brands of oats: one not tested for wheat contamination (Uncle Toby's; Oats #1), and two shown by R5 ELISA to contain less than 20 ppm wheat gluten (Tilquhilie Pudding; Oats #2 and Freedom Food; Oats #3). Barley challenge consisted of pearl barley (Ward McKenzie) cooked into a risotto (150 g dry weight daily) and the wheat challenge consisted of four 50 g slices of wheat bread daily (Baker's Delight white loaf cut to toasting thickness). The combined wheat, barley, and rye challenge consisted of muffins baked with wheat flour (White Wings), barley flour (Four Leaf Milling), and rye flour (Four Leaf Milling; 22-25 g dry weight each daily). A symptom diary based on a […] Likert scale was completed by participants daily from baseline until day 6.
(§3) Two avenin peptide libraries were utilized for epitope screening. These were designed using avenin sequences from GenBank and a customized algorithm, as previously described^9. The initial library consisted of 199 screening-grade 20 mers including all possible 12 mers (Mimotopes). This library was screened with and without tTG pre-treatment. The second library consisted of additional avenin sequences that were synthesized with glutamate substitution at sites predicted to be deamidated by published algorithms^10, 11 removing the requirement for tTG treatment. This library contained 369 screening-grade 20 mers, including all possible 12 mers (Pepscan). The second round avenin library contained wild-type and deamidated versions of the most immunogenic sequences (25 high quality 16 mers from Mimotopes). High quality peptides containing previously described immunogenic sequences from wheat, barley, and rye were used to test for cross-reactivity^8 (Pepscan). High quality hordein and avenin peptides for TCC testing and biochemical studies were ordered from Pepscan, Mimotopes, or GL Biochem.
(§4) Peripheral blood mononuclear cells (PBMC) were isolated from heparinized whole blood using Ficoll-Paque™ Plus density-gradient centrifugation (GE Healthcare). IFN-γ ELISpot (Mabtech) was set up as previously described^8.

PBMC [2] = test: IFN-γ ELISpot on PBMC of CD patients after 3-day barley challenge; details: after barley challenge
Excerpt: as §1, §2, §3, §4

Patient 14 TCC-01 = test: IFN-γ ELISpot with T cell clone; details: TCC Patient 14 TCC-01 (Table 5); mean no antigen 11.3, high background, SFU >25 considered as positive responses
Description: as §4
(§5) Isolation of TCC from CD patients was carried out as previously described^8. Briefly, CFSE-labeled PBMC were incubated with antigen for 7 days in IMDM supplemented with 5% heat-inactivated pooled human serum (PHS), 2 mM GlutaMAX™, 100 μM MEM non-essential amino acids (both from Gibco, Invitrogen), and 50 μM 2-mercaptoethanol (Sigma). Proliferated cells were single-cell sorted into 96-well plates containing IL-2, IL-4, anti-CD3 mAb, irradiated feeder cells (allogeneic PBMC and JY-EBV). TCC were expanded and maintained in IL-2 and IL-4 and tested for specificity by ELISpot with irradiated HLA-matched PBMC as antigen-presenting cells. Expanded clones were tested for HLA-DQ restriction, TCR Vbeta usage, and with lysine scans to work out minimal epitopes. See Table 1 below for TCC and epitope information.

Patient 2 TCC-01 = test: IFN-γ ELISpot with T cell clone; details: TCC Patient 2 TCC-01 (Table 5); mean no antigen 1.1
Description: as §4, §5

Patient 6 TCC-01 = test: IFN-γ ELISpot with T cell clone; details: TCC Patient 6 TCC-01 (Table 5); mean no antigen 2
Description: as §4, §5

## QYQPYPEQEQPILQQQ [partially deamidated avenin peptide containing DQ2.5-ave-1c]
PBMC [1]; patient P1, peptide 1 μg/ml
  IFN-γ ELISpot response (raw SFU): 11 SFU
  significant SFU as a percentage of maximal peptide SFU: * (*: 20-40%)
PBMC [1]; patient P1, peptide 10 μg/ml
  IFN-γ ELISpot response (raw SFU): 33 SFU
  significant SFU as a percentage of maximal peptide SFU: *** (***: >70%)
PBMC [1]; patient P1, peptide 100 μg/ml
  IFN-γ ELISpot response (raw SFU): 11 SFU
  significant SFU as a percentage of maximal peptide SFU: * (*: 20-40%)
PBMC [1]; patient P2, peptide 1 μg/ml
  IFN-γ ELISpot response (raw SFU): 6 SFU
PBMC [1]; patient P2, peptide 10 μg/ml
  IFN-γ ELISpot response (raw SFU): 34 SFU
  significant SFU as a percentage of maximal peptide SFU: ** (**: 40-70%)
PBMC [1]; patient P2, peptide 100 μg/ml
  IFN-γ ELISpot response (raw SFU): 38 SFU
  significant SFU as a percentage of maximal peptide SFU: *** (***: >70%)
PBMC [1]; patient P3, peptide 1 μg/ml
  IFN-γ ELISpot response (raw SFU): 19 SFU
  significant SFU as a percentage of maximal peptide SFU: * (*: 20-40%)
PBMC [1]; patient P3, peptide 10 μg/ml
  IFN-γ ELISpot response (raw SFU): 26 SFU
  significant SFU as a percentage of maximal peptide SFU: ** (**: 40-70%)
PBMC [1]; patient P3, peptide 100 μg/ml
  IFN-γ ELISpot response (raw SFU): 18 SFU
  significant SFU as a percentage of maximal peptide SFU: * (*: 20-40%)
PBMC [1]; patient P11, peptide 1 μg/ml
  IFN-γ ELISpot response (raw SFU): 3 SFU
PBMC [1]; patient P11, peptide 10 μg/ml
  IFN-γ ELISpot response (raw SFU): 41 SFU
  significant SFU as a percentage of maximal peptide SFU: *** (***: >70%)
PBMC [1]; patient P11, peptide 100 μg/ml
  IFN-γ ELISpot response (raw SFU): 50 SFU
  significant SFU as a percentage of maximal peptide SFU: *** (***: >70%)
PBMC [1]; patient P12, peptide 1 μg/ml
  IFN-γ ELISpot response (raw SFU): 1 SFU
PBMC [1]; patient P12, peptide 10 μg/ml
  IFN-γ ELISpot response (raw SFU): 39 SFU
  significant SFU as a percentage of maximal peptide SFU: ** (**: 40-70%)
PBMC [1]; patient P12, peptide 100 μg/ml
  IFN-γ ELISpot response (raw SFU): 31 SFU
  significant SFU as a percentage of maximal peptide SFU: ** (**: 40-70%)
PBMC [1]; patient P13, peptide 50 μg/ml
  IFN-γ ELISpot response (raw SFU): 4 SFU
PBMC [2]; Patient 1, peptide 50 μg/ml
  IFN-γ ELISpot response (raw SFU): 58 SFU
  significant SFU as a percentage of maximal peptide SFU: ^^ (^^: 10-20%)
PBMC [2]; Patient 2, peptide 50 μg/ml
  IFN-γ ELISpot response (raw SFU): 220 SFU
  significant SFU as a percentage of maximal peptide SFU: *** (***: >70%)
PBMC [2]; Patient 3, peptide 50 μg/ml
  IFN-γ ELISpot response (raw SFU): 34 SFU
  significant SFU as a percentage of maximal peptide SFU: * (*: 20-40%)
Patient 14 TCC-01
  IFN-γ ELISpot response (raw SFU): 21 SFU
Patient 2 TCC-01
  IFN-γ ELISpot response (raw SFU): 288 SFU
Patient 6 TCC-01
  IFN-γ ELISpot response (raw SFU): 5 SFU

## QYQPYPEQQQPILQQQ [avenin peptide, Genbank AAB32025 (7-22), wild-type]
PBMC [1]; patient P1, peptide 1 μg/ml
  IFN-γ ELISpot response (raw SFU): 2 SFU
PBMC [1]; patient P1, peptide 10 μg/ml
  IFN-γ ELISpot response (raw SFU): 11 SFU
  significant SFU as a percentage of maximal peptide SFU: * (*: 20-40%)
PBMC [1]; patient P1, peptide 100 μg/ml
  IFN-γ ELISpot response (raw SFU): 11 SFU
  significant SFU as a percentage of maximal peptide SFU: * (*: 20-40%)
PBMC [1]; patient P2, peptide 1 μg/ml
  IFN-γ ELISpot response (raw SFU): 2 SFU
PBMC [1]; patient P2, peptide 10 μg/ml
  IFN-γ ELISpot response (raw SFU): 10 SFU
PBMC [1]; patient P2, peptide 100 μg/ml
  IFN-γ ELISpot response (raw SFU): 23 SFU
  significant SFU as a percentage of maximal peptide SFU: ** (**: 40-70%)
PBMC [1]; patient P3, peptide 1 μg/ml
  IFN-γ ELISpot response (raw SFU): 1 SFU
PBMC [1]; patient P3, peptide 10 μg/ml
  IFN-γ ELISpot response (raw SFU): 25 SFU
  significant SFU as a percentage of maximal peptide SFU: ** (**: 40-70%)
PBMC [1]; patient P3, peptide 100 μg/ml
  IFN-γ ELISpot response (raw SFU): 4 SFU
PBMC [1]; patient P11, peptide 1 μg/ml
  IFN-γ ELISpot response (raw SFU): 2 SFU
PBMC [1]; patient P11, peptide 10 μg/ml
  IFN-γ ELISpot response (raw SFU): 11 SFU
  significant SFU as a percentage of maximal peptide SFU: (^: 10-20%)
PBMC [1]; patient P11, peptide 100 μg/ml
  IFN-γ ELISpot response (raw SFU): 4 SFU
  significant SFU as a percentage of maximal peptide SFU: ** (**: 40-70%)
PBMC [1]; patient P12, peptide 1 μg/ml
  IFN-γ ELISpot response (raw SFU): 1 SFU
PBMC [1]; patient P12, peptide 10 μg/ml
  IFN-γ ELISpot response (raw SFU): 3 SFU
PBMC [1]; patient P12, peptide 100 μg/ml
  IFN-γ ELISpot response (raw SFU): 7 SFU
PBMC [1]; patient P13, peptide 50 μg/ml
  IFN-γ ELISpot response (raw SFU): 2 SFU
Patient 14 TCC-01
  IFN-γ ELISpot response (raw SFU): 22 SFU
Patient 2 TCC-01
  IFN-γ ELISpot response (raw SFU): 79 SFU
Patient 6 TCC-01
  IFN-γ ELISpot response (raw SFU): 3 SFU

## SEQYQPYPEQQQPFVQ [avenin peptide, wild-type]
PBMC [1]; patient P1, peptide 1 μg/ml
  IFN-γ ELISpot response (raw SFU): 2 SFU
PBMC [1]; patient P1, peptide 10 μg/ml
  IFN-γ ELISpot response (raw SFU): 2 SFU
PBMC [1]; patient P1, peptide 100 μg/ml
  IFN-γ ELISpot response (raw SFU): 4 SFU
PBMC [1]; patient P2, peptide 1 μg/ml
  IFN-γ ELISpot response (raw SFU): 4 SFU
PBMC [1]; patient P2, peptide 10 μg/ml
  IFN-γ ELISpot response (raw SFU): 1 SFU
PBMC [1]; patient P2, peptide 100 μg/ml
  IFN-γ ELISpot response (raw SFU): 16 SFU
  significant SFU as a percentage of maximal peptide SFU: * (*: 20-40%)
PBMC [1]; patient P3, peptide 1 μg/ml
  IFN-γ ELISpot response (raw SFU): 1 SFU
PBMC [1]; patient P3, peptide 10 μg/ml
  IFN-γ ELISpot response (raw SFU): 2 SFU
PBMC [1]; patient P3, peptide 100 μg/ml
  IFN-γ ELISpot response (raw SFU): 4 SFU
PBMC [1]; patient P11, peptide 1 μg/ml
  IFN-γ ELISpot response (raw SFU): 0 SFU
PBMC [1]; patient P11, peptide 10 μg/ml
  IFN-γ ELISpot response (raw SFU): 0 SFU
PBMC [1]; patient P11, peptide 100 μg/ml
  IFN-γ ELISpot response (raw SFU): 0 SFU
PBMC [1]; patient P12, peptide 1 μg/ml
  IFN-γ ELISpot response (raw SFU): 0 SFU
PBMC [1]; patient P12, peptide 10 μg/ml
  IFN-γ ELISpot response (raw SFU): 1 SFU
PBMC [1]; patient P12, peptide 100 μg/ml
  IFN-γ ELISpot response (raw SFU): 4 SFU
PBMC [1]; patient P13, peptide 50 μg/ml
  IFN-γ ELISpot response (raw SFU): 1 SFU
Patient 14 TCC-01
  IFN-γ ELISpot response (raw SFU): 11 SFU
Patient 2 TCC-01
  IFN-γ ELISpot response (raw SFU): 100 SFU
Patient 6 TCC-01
  IFN-γ ELISpot response (raw SFU): 1 SFU

## pEPEQTFPEQPQLPF ([pGlu]PEQTFPEQPQLPF) [wheat peptide, AAK84780.1 (5-18) [Q5 to pyroglutamate, Q7 to E, Q12 to E], reference compound]
Patient 14 TCC-01
  IFN-γ ELISpot response (raw SFU): 33 SFU
Patient 2 TCC-01
  IFN-γ ELISpot response (raw SFU): 2 SFU
Patient 6 TCC-01
  IFN-γ ELISpot response (raw SFU): 11 SFU

## pEPFPEQPEQPFPQP ([pGlu]PFPEQPEQPFPQP) [wheat peptide, ACO40292.1 (81-94) [Q81 to pyroglutamate, Q85 to E, Q88 to E], reference compound]
Patient 14 TCC-01
  IFN-γ ELISpot response (raw SFU): 14 SFU
Patient 2 TCC-01
  IFN-γ ELISpot response (raw SFU): 119 SFU
Patient 6 TCC-01
  IFN-γ ELISpot response (raw SFU): 5 SFU
